SMILES strings stand for the structures.

For test [1], the target named is T1, C-terminal catalytic domain of MALT1 (amino acid residues 329-824) (Homo sapiens, UniProt Q9UDY8).
T1 construct: C-terminal catalytic domain of MALT1 (amino acid residues 329-824)
T1 sequence (Q9UDY8 329-824): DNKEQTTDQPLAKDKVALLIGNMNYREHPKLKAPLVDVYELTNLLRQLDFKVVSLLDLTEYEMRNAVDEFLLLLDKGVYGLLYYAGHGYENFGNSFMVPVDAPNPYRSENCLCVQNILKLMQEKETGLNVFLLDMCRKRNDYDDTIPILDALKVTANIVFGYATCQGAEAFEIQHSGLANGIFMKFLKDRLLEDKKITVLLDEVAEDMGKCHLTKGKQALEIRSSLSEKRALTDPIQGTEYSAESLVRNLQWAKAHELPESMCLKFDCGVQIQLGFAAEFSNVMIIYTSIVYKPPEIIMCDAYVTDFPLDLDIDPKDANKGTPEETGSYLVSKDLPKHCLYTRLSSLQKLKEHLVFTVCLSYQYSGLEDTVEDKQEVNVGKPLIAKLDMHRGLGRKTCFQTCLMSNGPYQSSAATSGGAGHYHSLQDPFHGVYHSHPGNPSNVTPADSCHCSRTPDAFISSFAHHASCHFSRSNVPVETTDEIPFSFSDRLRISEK
As to the kind of experiment: MALT1 protease inhibitory activity (enzyme activity inhibition assay, fluorogenic substrate). The class given is biochemical. The conditions noted are these: substrate Ac-Leu-Arg-Ser-Arg-AMC 50 µM; 30°C for 2 hours; fluorescence. Here is the method:
To evaluate the enzyme inhibitory activity of a test substance against MALT1, an enzyme activity inhibition assay was conducted using the C-terminal catalytic domain of MALT1 (amino acid residues 329-824).
A test substance was prepared at a concentration of 10 mM in dimethyl sulfoxide (DMSO) and further diluted with DMSO to obtain final concentrations of 1000, 100, 10, 1, and 0.1 µM. The solutions were further diluted 25-fold with an assay buffer to prepare final test substance solutions. The composition of the assay buffer was 200 mM Tris/HCl HEPES (pH 7.5), 0.8 M Na citrate, 100 µM DTT, and 0.05% CHAPS.
The test substance solution was added to a 384-well black plate (#6007270, PerkinElmer) in an amount of 5 µL per well (n = 2; final concentrations of 10000, 1000, 100, 10, 1, and 0.1 nM), followed by the addition of 10 µL of MALT1 enzyme and finally 5 µL of a substrate solution (Ac-Leu-Arg-Ser-Arg-AMC, Peptide Institute, Inc.; final concentration in the reaction mixture: 50 µM), and after stirring, the mixture was allowed to react at 30°C for 2 hours. Fluorescence (excitation: 380 nm, emission: 460 nm) was detected using a microplate reader (EnVision, PerkinElmer).
Using the measurement data, non-linear regression analysis based on a 2-parameter logistic model was performed with Spotfire (PerkinElmer) to calculate IC50.

Test [2] relates to HEK293/API2-MALT1/NF-κB reporter cells. As to the kind of experiment: Inhibition of reporter activity in HEK293/API2-MALT1/NF-κB reporter cells. The class given is cell-based. As to conditions: Homo sapiens, 24 hours with test substance, One-glo luminescence. How it is done:
The API2-MALT1 fusion protein, expressed in MALT lymphoma, is known to constitutively activate the NF-κB pathway. To evaluate the inhibitory effect of the test substance on the NF-κB pathway in cells, a reporter activity inhibition test was conducted using HEK293/API2-MALT1/NF-κB reporter cells.
The test substance was prepared at a concentration of 10 mM in dimethyl sulfoxide (DMSO) and further diluted with DMSO to each of concentrations of 1000, 300, 100, and 10 µM. The solutions were further diluted 100-fold with DMEM medium containing 10% FBS to prepare test substance solutions.
HEK293/API2-MALT1/NF-κB reporter cells and 293T/CMV reporter cells (used as a negative control) were cultured in DMEM medium containing 10% FBS. Into a 384-well plate (#781080, Greiner), 6,000 cells were seeded in 30 µL per well, and after culturing for 24 hours, 3.3 µL of the adjusted test substance solution was added thereto (final concentrations: 10,000, 1,000, 100, and 10 nM). After culturing for 24 hours at 37°C in a 5% CO2 incubator, 33 µL of One-glo (Promega) was added to each well. After a 5-minute incubation at room temperature, luminescence was detected using a microplate reader (EnVision, PerkinElmer).
Using the measurement data, non-linear regression analysis was performed with the SAS system (SAS Institute Inc.) to estimate IC50.

The test system of a further test is OCI-Ly3 cell lines. As to the kind of experiment: Proliferation inhibition test, ABC-DLBCL cell line OCI-Ly3. The conditions noted are these: Homo sapiens; OCI-Ly3 (ABC-DLBCL, NF-κB pathway-dependent); 96 hours; Cell Counting Kit-8; read-out: Proliferation inhibitory activity against OCI-Ly3 IC50. The class given is cell-based. How it is done: (§1) In ABC-DLBCL cell lines, the NF-κB pathway is constitutively activated due to mutations in the B-cell receptor pathway. To evaluate the proliferation inhibitory activity associated with the MALT1 inhibitory activity of the test substance, a proliferation inhibition test was conducted using ABC-DLBCL cell lines.
(§2) The test substance was prepared at a concentration of 10 mM in dimethyl sulfoxide (DMSO) and further diluted with DMSO to each of concentrations of 3,000, 1,000, 300, 100, 30, and 10 µM. The solutions were further diluted 100-fold with IMDM medium containing 10% FBS to prepare test substance solutions.
(§3) OCI-Ly3 cell lines (ABC-DLBCL, NF-κB pathway-dependent) were cultured in IMDM containing 10% FBS, and SU-DHL-4 cell lines (GCB-DLBCL, NF-κB pathway-independent, used as a negative control) were cultured in RPMI-1640 containing 10% FBS. Into a 96-well plate, 2,000 cells of the OCI-Ly3 cell line and 4,000 cells of the SU-DHL-4 cell line were seeded in 100 µL per well, and 11 µL of the adjusted test substance solution was added thereto (final concentrations: 10,000, 3,000, 1,000, 300, 100, 30, and 10 nM). After 96 hours of incubation at 37°C in a 5% CO2 incubator, 10 µL of Cell Counting Kit-8 (Dojindo Laboratories) was added to each well. After 4 hours of incubation at 37°C, absorbance at 450 nm was detected using a microplate reader (EnVision, PerkinElmer).
(§4) Using the measurement data, non-linear regression analysis based on a 2-parameter logistic model was performed with Spotfire (PerkinElmer) to estimate IC50 values.
(Tetrazolium dyes change colour on reduction, which living cells bring about.)

A further test has as its system SU-DHL-4 cell lines. Briefly: Proliferation inhibition test, GCB-DLBCL cell line SU-DHL-4 (negative control line). Type of test: cell-based. As to conditions: Homo sapiens; SU-DHL-4 (GCB-DLBCL, NF-κB pathway-independent, negative control); 96 hours; Cell Counting Kit-8; read-out: Proliferation inhibitory activity against SU-DHL-4 IC50. Here is the method:
as §1, §2, §3, §4

Regarding `C[C@@H]1C[C@H](C(=O)c2cn(C)c3nc(-n4nccn4)c(Cl)cc23)CCN1c1ncncc1Br` (racemic) [Example 33, [(2RS,4RS)-1-(5-bromopyrimidin-4-yl)-2-methylpiperidin-4-yl][5-chloro-1-methyl-6-(2H-1,2,3-triazol-2-yl)-1H-pyrrolo[2,3-b]pyridin-3-yl]methanone], the IC50 in test [1] is 10 nM; in test [2], 640 nM; with OCI-Ly3 cell lines, 790 nM; in the test on SU-DHL-4 cell lines it was above 10000 nM.
`C[C@@H]1CC(C(=O)c2cn(C3CCOCC3)c3nc(-n4nccn4)c(Cl)cc23)C[C@@H](C)N1c1ncc(F)cc1I` (stereo partly drawn) [Example 20, [5-chloro-1-(oxan-4-yl)-6-(2H-1,2,3-triazol-2-yl)-1H-pyrrolo[2,3-b]pyridin-3-yl][(2R,6R)-1-(5-fluoro-3-iodopyridin-2-yl)-2,6-dimethylpiperidin-4-yl]methanone]: the IC50 worked out at 110 nM in test [1], 240 nM in test [2], 480 nM with OCI-Ly3 cell lines and 6400 nM in the test with SU-DHL-4 cell lines.
The like results for `O=C(c1cnn(-c2cccc3c(=O)[nH]ccc23)c1C(F)(F)F)c1cn(C2CCC2)c2nc(-n3nccn3)c(Cl)cc12` [Example 30, 5-{4-[5-chloro-1-cyclobutyl-6-(2H-1,2,3-triazol-2-yl)-1H-pyrrolo[2,3-b]pyridine-3-carbonyl]-5-(trifluoromethyl)-1H-pyrazol-1-yl}isoquinolin-1(2H)-one] were, in that order, 44 nM, 500 nM, 870 nM and above 10000 nM.
As to `C[C@@H]1CC(C(=O)c2cn(C3CCS(=O)(=O)CC3)c3nc(-n4nccn4)c(Cl)cc23)C[C@@H](C)N1c1ncc(F)cc1I` (stereo partly drawn) [Example 19, [5-chloro-1-(1,1-dioxotetrahydro-2H-thiopyran-4-yl)-6-(2H-1,2,3-triazol-2-yl)-1H-pyrrolo[2,3-b]pyridin-3-yl][(2R,6R)-1-(5-fluoro-3-iodopyridin-2-yl)-2,6-dimethylpiperidin-4-yl]methanone], the IC50 in test [1] worked out at 92 nM; in test [2], 130 nM; with OCI-Ly3 cell lines, 240 nM; with SU-DHL-4 cell lines, 2500 nM.
Take `C[C@@H]1C[C@H](C(=O)c2c[nH]c3nc(C(=O)N4CCNCC4)c(Cl)cc23)CCN1c1ncc(F)cc1Cl` (racemic) [Example 35, {5-chloro-3-[(2RS,4RS)-1-(3-chloro-5-fluoropyridin-2-yl)-2-methylpiperidine-4-carbonyl]-1H-pyrrolo[2,3-b]pyridin-6-yl}(piperazin-1-yl)methanone]: the IC50 was 37 nM in test [1], 390 nM in test [2], 630 nM in the test on OCI-Ly3 cell lines and 9500 nM in the test with SU-DHL-4 cell lines.
The like results for `O=C(c1cnn(-c2cncc3sccc23)c1C(F)(F)F)c1cn(C2COC2)c2nc(-n3nccn3)c(Cl)cc12` [Example 25, [5-chloro-1-(oxetan-3-yl)-6-(2H-1,2,3-triazol-2-yl)-1H-pyrrolo[2,3-b]pyridin-3-yl][1-(thieno[2,3-c]pyridin-4-yl)-5-(trifluoromethyl)-1H-pyrazol-4-yl]methanone] were, in that order, 19 nM, 180 nM, 440 nM and 9000 nM.
For `C[C@@H]1CC(C(=O)c2cn([C@H]3CCOC3)c3nc(-n4nccn4)c(Cl)cc23)C[C@@H](C)N1c1ncc(F)cc1I` (stereo partly drawn) [Example 21, {5-chloro-1-[(3S)-oxolan-3-yl]-6-(2H-1,2,3-triazol-2-yl)-1H-pyrrolo[2,3-b]pyridin-3-yl}[(2R,6R)-1-(5-fluoro-3-iodopyridin-2-yl)-2,6-dimethylpiperidin-4-yl]methanone], in that order: 44 nM, 310 nM, 540 nM and 9000 nM.
In the case of `O=C(c1cnn(-c2cccc3c(F)cccc23)c1C(F)(F)F)c1c[nH]c2nc(-n3nccn3)c(Cl)cc12` [Example 23, [5-chloro-6-(2H-1,2,3-triazol-2-yl)-1H-pyrrolo[2,3-b]pyridin-3-yl][1-(5-fluoronaphthalen-1-yl)-5-(trifluoromethyl)-1H-pyrazol-4-yl]methanone], the IC50 amounted to 19 nM in test [1], 190 nM in test [2], 870 nM in the test with OCI-Ly3 cell lines and 9500 nM in the test with SU-DHL-4 cell lines.
For `Cn1cc(C(=O)c2cnn(-c3ccnc4sccc34)c2C(F)(F)F)c2cc(Cl)c(-n3nccn3)nc21` [Example 24, [5-chloro-1-methyl-6-(2H-1,2,3-triazol-2-yl)-1H-pyrrolo[2,3-b]pyridin-3-yl][1-(thieno[2,3-b]pyridin-4-yl)-5-(trifluoromethyl)-1H-pyrazol-4-yl]methanone], the IC50 in test [1] was found to be 12 nM; in test [2] it was 130 nM; in the test on OCI-Ly3 cell lines, 180 nM; in the test with SU-DHL-4 cell lines it was 9100 nM.
The like results for `C[C@@H]1C[C@H](C(=O)c2cn(C)c3nc(S(=O)(=O)N4CCNCC4)c(Cl)cc23)CCN1c1ncc(F)cc1Cl` (racemic) [Example 36, [(2RS,4RS)-1-(3-chloro-5-fluoropyridin-2-yl)-2-methylpiperidin-4-yl][5-chloro-1-methyl-6-(piperazin-1-ylsulfonyl)-1H-pyrrolo[2,3-b]pyridin-3-yl]methanone] were, in that order, 20 nM, 280 nM, 410 nM and 2500 nM.

For the origin of these results see patent EP4772507A1, “AZAINDOLE COMPOUND AND MEDICAL DRUG” (Nippon Shinyaku Co., Ltd., priority 2023, dated 2025).
